# Source: US20080214471A1, “Method for inhibition of viral infection” (priority 1992, published 2008)
# What was measured:
# HDV virions [1] = assay: In vivo treatment of HDV in HBV-transgenic mice, serum HDV virions by RT-PCR; details: 50 mg/kg/day IP for one week
# Huh-7 cells [2] = assay: Standard XTT assay (overall cell metabolism); type: cell-based; details: at a concentration that effectively inhibits HDV virion production
# Excerpt: (§1) FIG. 8 illustrates that FT1-277 inhibits production of HDV virions. Huh-7 cells were co-transfected with HDV and HBV encoding plasmids to establish production of HDV virions, as described in the text, and grown in the presence of the indicated concentrations of FTI-277. HDV genome replication in the cells, and the amount of HDV genome-containing virions released into the supernatants, were monitored by northern blot analysis with a probe for HDV genomic RNA (left panel). The results were quantitated with a phosphoimager and the amount of virions produced at each concentration of FTI-277, expressed as a percentage of the no drug control, was plotted (purple bars, right panel). Also plotted are the results of assays for cellular metabolism (XTT assay, yellow bars), and general protein synthesis and secretion (HBV surface antigen released into the media supernatants, blue bars).
# (§2) FTI-277, a prenylation inhibitor, was tested for its ability to inhibit HDV virion production. […] Non-specific toxicity was assessed by free HBV surface antigen assay, which assesses effects on general protein synthesis and secretion, and a standard XTT assay, which measures overall cell metabolism.
# Huh-7 cells [3] = assay: Free HBV surface antigen assay (general protein synthesis and secretion); type: cell-based; details: at a concentration that effectively inhibits HDV virion production
# Excerpt: as §1, §2
# [4] = Serum alanine aminotransferase (ALT) assay for non-specific toxicity; details: HBV-transgenic mice, 50 mg/kg/day IP for one week, on average
# HDV virions [5] = assay: Inhibition of HDV virion production in co-transfected Huh-7 cells (northern blot for HDV genomic RNA); type: cell-based, hepatitis delta virus (HDV); details: Huh-7 cells co-transfected with HDV and HBV plasmids
# Excerpt: as §1
# Completely infectious HDV particles were produced using the system disclosed in Sureau et al., J. Virol., 66:1241-5 (1992). […]
# as §2
smiles,measurement,setting,value
COC(=O)[C@H](CCSC)NC(=O)c1ccc(NC[C@@H](N)CS)cc1-c1ccccc1 [FTI-277],production and release of HDV virions into the serum,HDV virions [1],completely eliminated
same,overall cell metabolism (XTT assay),Huh-7 cells [2],essentially does not affect
same,general protein synthesis and secretion (free HBV surface antigen released into media),Huh-7 cells [3],essentially does not affect
same,level of ALT compared with the placebo,[4],same level of ALT as the placebo
same,HDV virion production,HDV virions [5]; micromolar concentration,no detectable HDV virions produced
same,HDV virion production,HDV virions [5]; mid-nanomolar concentration,dramatically inhibited
